Where “and” joins values, the source holds several entries; their conditions need not be identical. Equal entries are not always repeated.
Columns and labels:
Assay type in all cases: in vivo
[1] = test system: maize; experiment: Pre-emergence test in maize (crop plant compatibility); conditions: for Average damage (%): maize, pre-emergence, 0.1% Renex-36
Method: (§1) Solvent: 2 to 3 parts by weight of acetone or N,N-dimethyl-formamide
(§2) Emulsifier: 1 part by weight of alkylaryl polyglycol ether
(§3) To produce a suitable preparation of active compound, 1 part by weight of active compound is mixed with the stated amount of solvent, the stated amount of emulsifier is added and the concentrate is diluted with water to the desired concentration. Formulated products are dissolved in water and then diluted with water to the desired concentration.
(§4) The solutions of the other mixing components (active compounds or safeners) are prepared analogously. The separately prepared solutions of the various mixing components are then combined and, if appropriate, additional substances (formulation auxiliaries, additives, etc.) are added and, if appropriate, water is added to prepare the desired dilution.
(§5) Seeds of the test plants are sown in standard soil. After 24 hours, the soil is sprayed with the preparation of active compound such that the particular amount of active compound desired in each case is applied per unit area. The concentration of active compound in the spray liquor is chosen such that the particular amount of active compound desired in each case is applied in 500 litres of water per hectare. The containers with the test plants are kept in a greenhouse at controlled temperature and controlled illumination until evaluation.
(§6) 0%=no effect/no damage (like untreated control)

[2] = test system: Veronica; experiment: Post-emergence test (herbicidal action, Colby): Veronica
Description: (§7) The expected action for a given combination of two herbicides can be calculated as follows (cf. COLBY, S. R.: “Calculating synergistic and antagonistic responses of herbicide combinations”, Weeds 15, Pages 20-22, 1967):
(§8) If the actual damage exceeds the calculated value, the combination has a superadditive effect, that is to say a synergistic effect.
as §3, §4
(§9) After three weeks, the degree of damage to the plants is rated in % damage in comparison to the development of the untreated control. The figures denote
as §6

[3] = test system: Solanum; experiment: Post-emergence test (herbicidal action, Colby): Solanum
Description: as §7, §8, §3, §4, §9, §6

[4] = test system: weeds; experiment: Pre-emergence test (herbicidal action against weeds, Colby)
Description: as §7, §8
The theoretically expected activity for a given combination of three herbicides can likewise be found in the literature mentioned above.
as §1, §2, §3, §4, §5, §9, §6

[5] = test system: Datura; experiment: Post-emergence test (herbicidal action, Colby): Datura
[6] = test system: Abutilon; experiment: Post-emergence test (herbicidal action, Colby): Abutilon; conditions: 4 g of a.i./ha
[7] = test system: Chenopodium; experiment: Post-emergence test (herbicidal action, Colby): Chenopodium; conditions: 4 g of a.i./ha
[8] = test system: Matricaria; experiment: Post-emergence test (herbicidal action, Colby): Matricaria; conditions: 4 g of a.i./ha
[9] = test system: Polygonum; experiment: Post-emergence test (herbicidal action, Colby): Polygonum; conditions: 8 g of a.i./ha
[10] = test system: Alopecurus; experiment: Pre-emergence test (herbicidal action, Colby): Alopecurus
[11] = test system: Cyperus; experiment: Pre-emergence test (herbicidal action, Colby): Cyperus
[12] = test system: Digitaria; experiment: Pre-emergence test (herbicidal action, Colby): Digitaria
[13] = test system: Echinochloa; experiment: Pre-emergence test (herbicidal action, Colby): Echinochloa
[14] = test system: Setaria; experiment: Pre-emergence test (herbicidal action, Colby): Setaria
[15] = test system: Abutilon; experiment: Pre-emergence test (herbicidal action, Colby): Abutilon
[16] = test system: Matricaria; experiment: Pre-emergence test (herbicidal action, Colby): Matricaria
[17] = test system: Polygonum; experiment: Pre-emergence test (herbicidal action, Colby): Polygonum
[18] = test system: Stellaria; experiment: Pre-emergence test (herbicidal action, Colby): Stellaria; conditions: 4 g of a.i./ha
[19] = test system: Ipomoea; experiment: Pre-emergence test (herbicidal action, Colby): Ipomoea
[20] = test system: Viola; experiment: Pre-emergence test (herbicidal action, Colby): Viola; conditions: 8 g of a.i./ha
[21] = test system: Datura; experiment: Pre-emergence test (herbicidal action, Colby): Datura; conditions: 4 g of a.i./ha
[22] = test system: Chenopodium; experiment: Pre-emergence test (herbicidal action, Colby): Chenopodium; conditions: 4 g of a.i./ha
[23] = test system: Eriochloa; experiment: Pre-emergence test (herbicidal action, Colby): Eriochloa
[24] = test system: Cassia; experiment: Pre-emergence test (herbicidal action, Colby): Cassia; conditions: 4 g of a.i./ha
[25] = test system: Bromus; experiment: Pre-emergence test (herbicidal action, Colby): Bromus; conditions: 4 g of a.i./ha
[26] = test system: Galium; experiment: Pre-emergence test (herbicidal action, Colby): Galium; conditions: 8 g of a.i./ha
[27] = test system: Lolium; experiment: Pre-emergence test (herbicidal action, Colby): Lolium; conditions: 8 g of a.i./ha
[28] = single active compound at 4 g of a.i./ha

CCS(=O)(=O)N(C(=O)C(C)(C)C)c1cc(-n2c(=O)cc(C(F)(F)F)n(C)c2=O)c(F)cc1C#N [I-3, N-[2-cyano-4-fluoro-5-(3-methyl-2,6-dioxo-4-trifluoromethyl-3,6-dihydro-1(2H)-pyrimidinyl)-phenyl]-N-(2,2-dimethyl-propanoyl)-1-ethanesulphonamide]
17%: Maize (21 days) ([1]; Table A28, 60 g of a.i./ha) | Average damage (%) ([1]; active compound 1 alone at 60 g of a.i./ha)
40%: Cassia [24]
30% and 50%: Ipomoea ([19]; 4 g of a.i./ha)
80%: Stellaria [18] | Chenopodium [22]
30: Ipomoea (pre-emergence test) ([4]; Table 23, 8 g of a.i./ha) | Ipomoea (pre-emergence test) ([4]; Table A20, 4 g of a.i./ha) | Datura (pre-emergence test) ([4]; Table A20, 8 g of a.i./ha) | Ipomoea (pre-emergence test) ([4]; Table A20, 8 g of a.i./ha) | Ipomoea (pre-emergence test) ([4]; Table A21, 8 g of a.i./ha) | Echinochloa (pre-emergence test) ([4]; Table A24, 4 g of a.i./ha) | Veronica (pre-emergence test) ([4]; Table A24, 4 g of a.i./ha) | Echinochloa (pre-emergence test) ([4]; Table A24, 8 g of a.i./ha) | Setaria (pre-emergence test) ([4]; Table A24, 8 g of a.i./ha) | Digitaria (pre-emergence test) ([4]; Table A26, 4 g of a.i./ha) | Lolium (pre-emergence test) ([4]; Table A26, 4 g of a.i./ha) | Matricaria (pre-emergence test) ([4]; Table A26, 4 g of a.i./ha) | Cassia (pre-emergence test) ([4]; Table A26, 8 g of a.i./ha) | Echinochloa (pre-emergence test) ([4]; Table A26, 8 g of a.i./ha) | Lolium (pre-emergence test) ([4]; Table A26, 8 g of a.i./ha) | Setaria (pre-emergence test) ([4]; Table A26, 8 g of a.i./ha) | Cassia (pre-emergence test) ([4]; Table A27, 8 g of a.i./ha)
40: Polygonum (pre-emergence test) ([4]; Table A21, 4 g of a.i./ha) | Polygonum (pre-emergence test) ([4]; Table A22, 4 g of a.i./ha) | Avena (pre-emergence test) ([4]; Table A25, 8 g of a.i./ha) | Avena (pre-emergence test) ([4]; Table A26, 4 g of a.i./ha)
29%: Maize (21 days) ([1]; Table A31, 90 g of a.i./ha)
20: Galium (pre-emergence test) ([4]; Table A20, 8 g of a.i./ha) | Polygonum (pre-emergence test) ([4]; Table A27, 8 g of a.i./ha)
50%: pest or weed control at 8 g/ha ([15]; 8 g of a.i./ha) | Matricaria ([16]; 4 g of a.i./ha) | Eriochloa ([23]; 8 g of a.i./ha)
50: Eriochloa (pre-emergence test) ([4]; Table 23, 8 g of a.i./ha) | Cassia (pre-emergence test) ([4]; Table A22, 8 g of a.i./ha) | Cyperus (pre-emergence test) ([4]; Table A25, 8 g of a.i./ha)
70: Matricaria (pre-emergence test) ([4]; Table A26, 8 g of a.i./ha)
10%: Maize (7 days) ([1]; Table A28, 60 g of a.i./ha)
95: Abutilon (pre-emergence test) ([4]; Table A27, 8 g of a.i./ha)
0%: Veronica ([2]; 4 g of a.i./ha) | damage, Veronica [2, 28] | Abutilon [6] | Chenopodium [7] | Alopecurus ([10]; 4 g of a.i./ha) | Alopecurus ([10]; 8 g of a.i./ha) | Cyperus ([11]; 4 g of a.i./ha) | Digitaria ([12]; 4 g of a.i./ha) | Echinochloa ([13]; 4 g of a.i./ha) | Echinochloa ([13]; 8 g of a.i./ha) | Setaria ([14]; 4 g of a.i./ha) | Setaria ([14]; 8 g of a.i./ha) | Polygonum ([17]; 4 g of a.i./ha) | Bromus [25]
90%: Matricaria ([16]; 8 g of a.i./ha) | Polygonum ([17]; 8 g of a.i./ha) | Viola [20]
20%: Maize (12 days) ([1]; Table A28, 60 g of a.i./ha) | Maize (7 days) ([1]; Table A28, 90 g of a.i./ha) | Maize (12 days) ([1]; Table A29, 60 g of a.i./ha) | Maize (7 days) ([1]; Table A31, 90 g of a.i./ha) | Digitaria ([12]; 8 g of a.i./ha) | pest or weed control at 4 g/ha ([15]; 4 g of a.i./ha) | Lolium [27]
36%: Maize (21 days) ([1]; Table A28, 90 g of a.i./ha) | Maize (21 days) ([1]; Table A29, 90 g of a.i./ha) | Average damage (%) ([1]; active compound 1 alone at 90 g of a.i./ha)
80: Chenopodium (pre-emergence test) ([4]; Table 23, 4 g of a.i./ha) | Chenopodium (pre-emergence test) ([4]; Table A20, 4 g of a.i./ha) | Chenopodium (pre-emergence test) ([4]; Table A21, 4 g of a.i./ha)
60%: Datura ([5]; 8 g of a.i./ha) | Polygonum [9]
60: Lolium (pre-emergence test) ([4]; Table A25, 8 g of a.i./ha)
90: Polygonum (pre-emergence test) ([4]; Table A21, 8 g of a.i./ha)
0: Galium (pre-emergence test) ([4]; Table 23, 4 g of a.i./ha) | Lolium (pre-emergence test) ([4]; Table 23, 4 g of a.i./ha) | Setaria (pre-emergence test) ([4]; Table 23, 4 g of a.i./ha) | Setaria (pre-emergence test) ([4]; Table 23, 8 g of a.i./ha) | Datura (pre-emergence test) ([4]; Table A20, 4 g of a.i./ha) | Lolium (pre-emergence test) ([4]; Table A20, 4 g of a.i./ha) | Datura (pre-emergence test) ([4]; Table A21, 4 g of a.i./ha) | Datura (pre-emergence test) ([4]; Table A22, 4 g of a.i./ha) | Cassia (pre-emergence test) ([4]; Table A24, 4 g of a.i./ha) | Lolium (pre-emergence test) ([4]; Table A24, 4 g of a.i./ha) | Bromus (pre-emergence test) ([4]; Table A25, 4 g of a.i./ha) | Echinochloa (pre-emergence test) ([4]; Table A26, 4 g of a.i./ha) | Setaria (pre-emergence test) ([4]; Table A26, 4 g of a.i./ha)
70%: Veronica ([2]; 8 g of a.i./ha) | damage, Veronica ([2]; single active compound at 8 g of a.i./ha) | Matricaria [8]
30%: Maize (12 days) ([1]; Table A29, 90 g of a.i./ha) | Maize (12 days) ([1]; Table A31, 90 g of a.i./ha) | Solanum ([3]; 4 g of a.i./ha) | damage, Solanum [3, 28] | Datura ([5]; 4 g of a.i./ha) | Cyperus ([11]; 8 g of a.i./ha) | Ipomoea ([19]; 8 g of a.i./ha) | Datura [21] | Eriochloa ([23]; 4 g of a.i./ha) | Galium [26]
